Experimental data as given in US5589461A, “Active substance for inhibiting the proliferation rate of hepatocytes” (priority 1994, dated 1996).
Several values for one entry are separate records, joined by “and”; a condition that tells them apart may be missing. Equal values may be shown once. Where a SMILES comes first, the peptide text is derived from it.

Assays:
hepatocytes = assay: proliferation rate of hepatocytes in rats after 66% partial hepatectomy (3H-thymidine, specific radioactivity of DNA); type: in vivo, rat
From the text: To carry out these experiments, young female Wistar rats weighing 100 g were used, which had been provided from the SPF animal house department of the Max-Planck-Instut fur Biochemie in D-82152 Martinstied.
Seven groups of rats were subjected to 66% partial hepatectomy. In each experimental group 4 animals were used. In a slight modification of the Higgins and Anderson method (Higgins, G. M., Anderson, R. M., Archives of Pathology 12 (1931), p. 186-202), the rats were submitted to partial hepatectomy between 13.00 h and 13.30 h. The tetrapeptide SDKP synthesized in the conventional way and dissolved in 1 ml of 0.9% NaCl was injected intraperitoneally (i.p.) to three groups immediately after operation and to three other groups 10 hrs after the operation, each three with different quantities (500 μg, 1 μg). The seventh group served as a control group, receiving the solvent only. […] The livers were conserved at -20° C. up to the time of determining the specific radioactivity of the DNA in the hepatocyte nuclei.
This specific radioactivity was used as a marker for the proliferation behaviour of the hepatocytes: Thymidine is incorporated only in DNA (not e.g. in RNA), and significant DNA synthesis is effected only during cell proliferation. The specific radioactivity of the DNA (in dpm/μg DNA) is the quotient of the result of radioactivity measurement of a sample (in dpm, i.e. disintegrations per minute) by the DNA content of that sample (in μg). The proliferation promoting or proliferation inhibiting character of the peptide (depending on the administered dose and the time of administration after partial hepatectomy) was determined by establishing the percentage of the specific radioactivity of the DNA in the hepatocyte nuclei of the experimental group as compared with the specific radioactivity of the control group associated with each experiment.
For determination of the specific radioactivity, the DNA was first extracted from the liver. […]
For measurement of the radioactivity, scintillation counting liquid was added to 1 ml of the extract, and ^3 H measurement was effected. […]

[1] = system: YOSHIDA liver tumor cell ascites AH 130; assay: development of the YOSHIDA ascites AH 130 in rat; type: in vivo
Procedure: Two groups, each comprising five female Wistar rats weighing approx. 100 grams, were inoculated with the YOSHIDA liver tumor cell ascites AH 130 of a rat having been infected 8 days ago. 0.5 ml of ascites fluid were injected intraperitoneally (i.p.) to each animal. Starting on the seventh day after ascites inoculation, 1 μg of SDK (dissolved in 1 ml of 0.9% NaCl solution) was injected i.p. to each animal of one group (five rats) during four days. Then the animals of both groups were killed. The following parameters were determined:
(a) Weight or respectively volume of ascites fluid. The killed rats were weighed, the ascites was sucked off as completely as possible, and the animals were weighed again. The difference resulting from these two ponderations corresponded to the ascites volume (1 g ≈1 ml).
(b) Number of tumor cells in the ascites 2 ml of the sucked-off ascites for each animal were placed into an EDTA tube, to prevent cells from agglomerating. With an aliquot thereof, the number of tumor cells was measured in a Coulter counter and extrapolated for the total volume.
The third and fourth columns give the respective results of twin measurements.

Hep G2 cells = assay: human tumor cells in tissue culture (cell growth, 3H-thymidine incorporation); type: cell-based
Procedure: The effect of the tripeptide on human tumor cells was tested in an in-vitro model. For this purpose, Hep G2 cells were used. This cell line is a human hepatom from the tumor cell bank of "Deutsches Krebsforschungszentrum Heidelberg ", which is cultivated as a monolayer in 90% DMEM (Dulbecco's modified Eagle's medium)/10% FKS (fetal calf serum) in a subculture interval of three to five days. Sixty dishes of each of the experimental and control cultures were used. A solution of 20 mg of SDK in 0.2 ml of 0.9% NaCl served as a stock solution which was diluted with a physiological sodium chloride solution as required for each case.
One day after transferring the cells, 0.2 ml of tripeptide SDK dissolved in 0.9% NaCl (concentration: 1 μg/ml) were added to each 10 ml of culture medium. The control dishes received 0.2 ml of solvent.
This test was repeated, this time adding 0.5 ng, 1.0 ng, 2.0 ng and 4.0 ng of SDK in 0.9% NaCl per 1 ml of culture medium. The control dishes again received the corresponding quantity of solvent. Moreover, 0.05 mCi 6-^3 H-thymidine were added to the cultures […] prior to expiration of the observation period, followed by incubation for 1 hour. The DNA of the cells was isolated as described under item (1.), and the radioactivity was measured- The results are listed in the following chart.

hepatitis B viruses = assay: synthesis of hepatitis B viruses in transfected Hep G2 cells (HBSAG/HBEAG radioimmunoassay); type: cell-based; conditions: for Ratio of mean values in cpm before/after treatment, HBEAG / Ratio of mean values in cpm before/after treatment, HBSAG: six days
From the text: Hepatitis B viruses can be cultivated in Hep G2 cells. For this purpose, a recombining plasmide containing the complete virus DNA is channelled into the cells. Starting from this, the synthesizing mechanism of the cells transfected in this way will produce hepatitis B viruses (cf. Chungming Chang et al., EMBO J. 6, p. 675-680, 1987) The virus synthesis manifests itself by secreting large quantities of two surface antigens of that virus (HBSAG and HBEAG). The antigens can be detected by means of a radioimmunoassay (RIA). In this determination, an unknown quantity of antigen (HBSAG and HBEAG) competes with a known quantity of radioactively marked antigen for a limited number of antibody binding positions in a predetermined quantity of the antiserum. In the state of equilibrium, the surplus antigen exists in both the bound and the free dissolved conditions. Now, if the quantity of radioactively marked antigen is constant in a series of reactions, the proportion bound to the antibody will decrease in accordance with an increasing quantity of unmarked antigen added to the individual samples.
For practical execution of this process, a calibration curve is established first, using known quantities of marked and unmarked antigen, which will then permit determination of the unknown quantity of antigen. After incubation, the free antigen is separated from the bound antigen, and the two fractions are measured separately.
A Hep-G2 cell culture was steadily transfected with hepatitis B viruses as described by SELLS et al., Proc. Natl. Acad. Sci. USA 1987, 84, p. 1005-1009. The transfected cells were sowed in ten 4.5 cm dishes at a density of 8×10^5 cells, and in four 9 cm dishes at a density of 1.6×10^6 cells respectively. After 24 hours, fresh medium was added, containing the tripeptide SDK at concencentrations of 0.5 ng/ml, 1.0 ng/ml, 3.0 ng/ml and 5 ng/ml for each two 4.9 cm dishes, or 1.0 ng/ml for each two 9 cm dishes respectively. The tripeptide had been prediluted in completed DMEM ([…]) and sterilized by filtration. The remaining dishes served as a control, receiving the pure medium. The old medium was conserved in the supernatant for measurement of antigens, in order to exclude artifacts due to possible heterogeneities of cell density. The samples of medium for measurement of antigens were taken after six days. Measurement was effected using a standard RIA kit (HBSAG Ansria II/125, type 7802, and HBEAG Abbott Hbe (rDNA), type 1237/24, both from Abbott, Wiesbaden), according to instructions for use. The experiments were conducted with twin samples (two dishes each), since the cells from one dish were not enough.

human T-cells = conditions: cited from earlier work
[2] = system: IgM secreting B-lymphocytes; conditions: mice; cited from earlier work
[3] = 0.5 ng of SDK per ml of medium, 4.5 cm dishes
[4] = 1.0 ng of SDK per ml of medium, 4.5 cm dishes
[5] = 1.0 ng of SDK per ml of medium, 9.0 cm dishes
[6] = 3.0 ng of SDK per ml of medium, 4.5 cm dishes
[7] = 5.0 ng of SDK per ml of medium, 4.5 cm dishes

With `NCCCC[C@H](NC(=O)[C@H](CC(=O)O)NC(=O)[C@@H](N)CO)C(=O)O` [SDK, Ser-Asp-Lys] (H-Ser-Asp-Lys-OH) as the compound, how does the “effect on hepatocyte proliferation” value (hepatocytes; 1 μg injected after a certain time interval (1 h, 3, 6, 10 hrs after operation)) read?
Its value is “inhibiting effect”.

And the “effect on hepatocyte proliferation” value (hepatocytes; 1 μg injected immediately after operation)?
Its value is “slightly proliferation promoting effect”.

And the decrease in proliferation (hepatocytes; 1 μg injected ten hours after operation)?
Its decrease in proliferation is “about fifty”.

What about the “average number of tumor cells as % of the number found in control animals” value ([1]; 1 μg SDK/animal i.p. during four days) of the same compound?
The value was 19.1%.

And the Ascites ([1]; 1 μg SDK/animal i.p. during four days from seventh day after ascites inoculation)?
The Ascites was 5.1 mL and 5.2 mL and 4.3 mL and 5.7 mL.

What about the quantity of ascites ([1]; 1 μg SDK/animal vs control) of the same compound?
The quantity of ascites was “drastic decrease”.

What about the “total number of tumor cells” value ([1]; 1 μg SDK/animal vs control) of the same compound?
The value was “drastic decrease”.

What about the “Cell number total, mean value + standard deviation” value ([1]; 1 μg SDK/animal, five rats) of the same compound?
Its value is 147.7 ± 70.1 × 10^6.

And the “Inhibition of proliferation in %” value (Hep G2 cells; 0.5 ng of SDK per ml of medium)?
The value was 19.3%.

What about the “Inhibition of proliferation in %” value (Hep G2 cells; 1.0 ng of SDK per ml of medium) of the same compound?
The value was 44.9%.

And the “Inhibition of proliferation in %” value (Hep G2 cells; 2.0 ng of SDK per ml of medium)?
The value was 34.0%.

What about the “Inhibition of proliferation in %” value (Hep G2 cells; 4.0 ng of SDK per ml of medium) of the same compound?
Its value is 12.4%.

What about the “concentration of maximum proliferation inhibiting effect” value (Hep G2 cells; Hep G2, per ml of culture medium) of the same compound?
The value was 1 ng/mL.

What about the “Ratio of mean values in cpm before/after treatment, HBEAG” value (hepatitis B viruses; [3]) of the same compound?
Its value is 6.10.

What about the “Ratio of mean values in cpm before/after treatment, HBSAG” value (hepatitis B viruses; [3]) of the same compound?
The value was 4.47.

What about the “Ratio of mean values in cpm before/after treatment, HBEAG” value (hepatitis B viruses; [4]) of the same compound?
The value was 6.22.

And the “Ratio of mean values in cpm before/after treatment, HBSAG” value (hepatitis B viruses; [4])?
The value was 4.18.

And the “Ratio of mean values in cpm before/after treatment, HBEAG” value (hepatitis B viruses; [5])?
The value was 6.59.

And the “Ratio of mean values in cpm before/after treatment, HBSAG” value (hepatitis B viruses; [5])?
Its value is 3.89.

What about the “Ratio of mean values in cpm before/after treatment, HBEAG” value (hepatitis B viruses; [6]) of the same compound?
The value was 7.31.

And the “Ratio of mean values in cpm before/after treatment, HBSAG” value (hepatitis B viruses; [6])?
The value was 4.57.

And the “Ratio of mean values in cpm before/after treatment, HBEAG” value (hepatitis B viruses; [7])?
The value was 8.00.

And the “Ratio of mean values in cpm before/after treatment, HBSAG” value (hepatitis B viruses; [7])?
The value was 4.18.

What about the “concentration of antigens, and hence the virus synthesis” value (hepatitis B viruses; transfected Hep G2 cells, SDK vs untreated) of the same compound?
Its value is “significantly reduced”.

And the “rosette formation due to interaction of human T-cells and sheep erythrocytes” value (human T-cells)?
Its value is “inhibits rosette formation”.

And the “immunomodulating effect: humoral response (generation of IgM secreting B-lymphocytes) to red blood cells of sheep” value [2]?
Its value is “stimulation of the humoral response”.
